Legend:
Carbonic anhydrase 1 = Carbonic anhydrase 1 (Homo sapiens, UniProt P00915)
Description: Inhibition constant against human (cloned) isozyme (hCA I) by the CO2 hydration method

Carbonic anhydrase 9 = Carbonic anhydrase 9 (Homo sapiens, UniProt Q16790)
Description: Inhibition constant against human cloned isozyme (hCA IX) by CO2 hydration method

Carbonic anhydrase 2 = Carbonic anhydrase 2 (Homo sapiens, UniProt P00918)
Description: Inhibition constant against human (cloned) isozyme (hCA II) by CO2 hydration method

in vitro [1] = conditions: human, whole blood; level measured in red blood cells
Description: Compound level in Red Blood Cells at 60 min, after exposure of 10 mL of Blood to compound solution by electronic spectroscopic method

in vitro [2] = conditions: human, whole blood; level measured in red blood cells; remark: listed apart in the source
Description: Compound level in Red Blood Cells at 30 min, after exposure of 10 mL of Blood to compound solution by HPLC method

in vitro [3] = conditions: human, whole blood; level measured in red blood cells; remark: listed apart in the source
Description: Compound level in Red Blood Cells at 48 h, after exposure of 10 mL of Blood to compound solution by HPLC method

in vitro [4] = conditions: human, whole blood; level measured in red blood cells; remark: listed apart in the source
Description: Compound level in Red Blood Cells at 60 min, after exposure of 10 mL of Blood to compound solution by HPLC method

in vitro [5] = conditions: human, whole blood; level measured in red blood cells; remark: listed apart in the source
Description: Compound level in Red Blood Cells at 48 h, after Exposure of 10 mL of Blood to Compound solution by electronic spectroscopic method

in vitro [6] = conditions: human, whole blood; level measured in red blood cells; remark: listed apart in the source
Description: Compound level in Red Blood Cells at 30 min, after exposure of 10 mL of Blood to compound solution by electronic spectroscopic method

Sequence of Carbonic anhydrase 1 (P00915 whole entry): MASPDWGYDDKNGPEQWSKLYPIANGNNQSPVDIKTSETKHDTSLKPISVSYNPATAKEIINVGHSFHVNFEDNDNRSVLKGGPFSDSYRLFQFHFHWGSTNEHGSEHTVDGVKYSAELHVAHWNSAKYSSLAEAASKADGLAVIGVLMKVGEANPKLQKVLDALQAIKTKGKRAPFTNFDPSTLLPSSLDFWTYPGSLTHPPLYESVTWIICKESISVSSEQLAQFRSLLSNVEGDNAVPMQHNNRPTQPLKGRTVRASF

Ki (Carbonic anhydrase 1)	Ki (Carbonic anhydrase 9)	Ki (Carbonic anhydrase 2)	concentration at 1 h (in vitro [1])	concentration at 0.5 h (in vitro [2])	concentration at 48 h (in vitro [3])	concentration at 1 h (in vitro [4])	concentration at 48 h (in vitro [5])	concentration at 0.5 h (in vitro [6])	SMILES
1100 nM	35 nM	43 nM	–	–	–	–	–	–	NS(=O)(=O)c1ccc(/N=C(S)/N=C2/C=CC(=C3c4ccc(O)cc4Oc4cc(O)ccc43)C(C(=O)O)=C2)c(Br)c1
1070 nM	31 nM	40 nM	–	–	–	–	–	–	NS(=O)(=O)c1ccc(/N=C(S)/N=C2/C=CC(=C3c4ccc(O)cc4Oc4cc(O)ccc43)C(C(=O)O)=C2)c(I)c1
980 nM	30 nM	–	–	–	–	–	–	–	NS(=O)(=O)c1ccc(/N=C(S)/N=C2/C=CC(=C3c4ccc(O)cc4Oc4cc(O)ccc43)C(C(=O)O)=C2)c(F)c1
7000 nM	38 nM	50 nM	0.5 µM	0.3 µM	0.3 µM	0.4 µM	0.5 µM	0.5 µM	Cc1cc(C)[n+](Cc2ccc(S(N)(=O)=O)cc2)cc1C.[O-][Cl+3]([O-])([O-])[O-]
950 nM	32 nM	52 nM	–	–	–	–	–	–	NS(=O)(=O)c1ccc(/N=C(S)/N=C2/C=CC(=C3c4ccc(O)cc4Oc4cc(O)ccc43)C(C(=O)O)=C2)c(Cl)c1
–	–	–	168 µM	170 µM	167 µM	168 µM	169 µM	169 µM	CC(=O)/N=c1/sc(S(N)(=O)=O)nn1C [METHAZOLAMIDE]

SMILES	Ki (Carbonic anhydrase 1)	Ki (Carbonic anhydrase 9)	Ki (Carbonic anhydrase 2)	concentration at 1 h (in vitro [1])	concentration at 0.5 h (in vitro [2])	concentration at 48 h (in vitro [3])	concentration at 1 h (in vitro [4])	concentration at 48 h (in vitro [5])	concentration at 0.5 h (in vitro [6])
NS(=O)(=O)c1ccc(CC/N=C(S)/N=C2/C=CC(=C3c4ccc(O)cc4Oc4cc(O)ccc43)C(C(=O)O)=C2)cc1	1300 nM	–	–	–	–	–	–	–	–
NS(=O)(=O)c1ccc(C/N=C(S)/N=C2/C=CC(=C3c4ccc(O)cc4Oc4cc(O)ccc43)C(C(=O)O)=C2)cc1	1450 nM	26 nM	–	–	–	–	–	–	–
NCCc1ccc(S(N)(=O)=O)cc1	–	–	–	165 µM	132 µM	167 µM	162 µM	168 µM	138 µM

— ChEMBL document CHEMBL1140330, “Carbonic anhydrase inhibitors. Design of fluorescent sulfonamides as probes of tumor-associated carbonic anhydrase IX that inhibit isozyme IX-mediated acidification of hypoxic tumors” (J Med Chem, 2005)
